Active and inactive are the calls of the source. No rule for the calls is given here.
Tested on: CCRIS mutagenicity, Ames/micronucleus/aberration tests
Assay: CCRIS mutagenicity studies
[1] = Test System: AMES SALMONELLA TYPHIMURIUM, Strain/Indicator: TA98, Metabolic Activation: NONE, Method: PREINCUBATION
[2] = Test System: AMES SALMONELLA TYPHIMURIUM, Strain/Indicator: TA100, Metabolic Activation: NONE, Method: PREINCUBATION
[3] = Test System: AMES SALMONELLA TYPHIMURIUM, Strain/Indicator: TA98, Metabolic Activation: NONE, Method: STANDARD PLATE

Structure (SMILES): [CH3][Hg][Cl]
- mutagenic call (End Point: IN VITRO CHROMOSOMAL ABERRATIONS, Test System: CHO CELLS, Metabolic Activation: NONE): active; positive (structural changes)
- mutagenic call (End Point: IN VITRO MICRONUCLEUS, Test System: CHL/IU CELLS, Metabolic Activation: NONE): active; positive
- mutagenic call (End Point: IN VITRO MICRONUCLEUS, Test System: HUMAN PERIPHERAL LYMPHOCYTES, Metabolic Activation: NONE): active; positive
- mutagenic call (End Point: IN VITRO MICRONUCLEUS, Test System: HUMAN PERIPHERAL LYMPHOCYTES, Metabolic Activation: NONE, Method: FISH (CENTROMERIC SIGNAL CONTENT)): active; positive
- mutagenic call (Test System: AMES SALMONELLA TYPHIMURIUM, Strain/Indicator: TA97, Metabolic Activation: HAMSTER, LIVER, S-9, AROCLOR 1254 (10 OR 30%), Method: PREINCUBATION): inactive; negative
- mutagenic call (Test System: AMES SALMONELLA TYPHIMURIUM, Strain/Indicator: TA97, Metabolic Activation: NONE, Method: PREINCUBATION): inactive; negative
- mutagenic call (Test System: AMES SALMONELLA TYPHIMURIUM, Strain/Indicator: TA97, Metabolic Activation: RAT, LIVER, S-9, AROCLOR 1254 (10 OR 30%), Method: PREINCUBATION): inactive; negative
- mutagenic call (Test System: AMES SALMONELLA TYPHIMURIUM, Strain/Indicator: TA98, Metabolic Activation: HAMSTER, LIVER, S-9, AROCLOR 1254 (10 OR 30%), Method: PREINCUBATION): inactive; negative
- mutagenic call [1]: inactive; negative
- mutagenic call (Test System: AMES SALMONELLA TYPHIMURIUM, Strain/Indicator: TA98, Metabolic Activation: RAT, LIVER, S-9, AROCLOR 1254 (10 OR 30%), Method: PREINCUBATION): inactive; negative
- mutagenic call (Test System: AMES SALMONELLA TYPHIMURIUM, Strain/Indicator: TA100, Metabolic Activation: HAMSTER, LIVER, S-9, AROCLOR 1254 (10 OR 30%), Method: PREINCUBATION): inactive; negative
- mutagenic call [2]: inactive; negative
- mutagenic call (Test System: AMES SALMONELLA TYPHIMURIUM, Strain/Indicator: TA100, Metabolic Activation: RAT, LIVER, S-9, AROCLOR 1254 (10 OR 30%), Method: PREINCUBATION): inactive; negative
- mutagenic call (Test System: AMES SALMONELLA TYPHIMURIUM, Strain/Indicator: TA1535, Metabolic Activation: HAMSTER, LIVER, S-9, AROCLOR 1254 (10 OR 30%), Method: PREINCUBATION): inactive; negative
- mutagenic call (Test System: AMES SALMONELLA TYPHIMURIUM, Strain/Indicator: TA1535, Metabolic Activation: NONE, Method: PREINCUBATION): inactive; negative
- mutagenic call (Test System: AMES SALMONELLA TYPHIMURIUM, Strain/Indicator: TA1535, Metabolic Activation: RAT, LIVER, S-9, AROCLOR 1254 (10 OR 30%), Method: PREINCUBATION): inactive; negative
- mutagenic call (Test System: AMES SALMONELLA TYPHIMURIUM, Strain/Indicator: TA1537, Metabolic Activation: HAMSTER, LIVER, S-9, AROCLOR 1254 (10 OR 30%), Method: PREINCUBATION): inactive; negative
- mutagenic call (Test System: AMES SALMONELLA TYPHIMURIUM, Strain/Indicator: TA1537, Metabolic Activation: NONE, Method: PREINCUBATION): inactive; negative
- mutagenic call (Test System: AMES SALMONELLA TYPHIMURIUM, Strain/Indicator: TA1537, Metabolic Activation: RAT, LIVER, S-9, AROCLOR 1254 (10 OR 30%), Method: PREINCUBATION): inactive; negative
- mutagenic call (Test System: E. COLI, Strain/Indicator: WP2 UVRA, Metabolic Activation: NONE, Method: SPOT TEST): active; positive
- mutagenic call (Test System: E. COLI, Strain/Indicator: WP2 UVRA, Metabolic Activation: NONE, Method: STANDARD PLATE): active; positive

Structure (SMILES): O=c1c(O[C@@H]2O[C@H](CO)[C@H](O)[C@H](O)[C@H]2O)c(-c2ccc(O)c(O)c2)oc2cc(O)cc(O)c12
- mutagenic call (Test System: Ames Salmonella typhimurium, Strain/Indicator: TA98, Metabolic Activation: None, Method: Standard plate): inactive; negative
- mutagenic call (Test System: Ames Salmonella typhimurium, Strain/Indicator: TA98, Metabolic Activation: Rat, Liver, S-9, Aroclor 1254, Method: Standard plate): inactive; negative

Structure (SMILES): CC(C)Oc1ccccc1OC(=O)N(C)N=O
- mutagenic call (End Point: In vitro chromosomal aberrations, Test System: Chinese hamster ovary (CHO-W8) cells, Metabolic Activation: None): active; positive (structural changes)
- mutagenic call (Test System: CHINESE HAMSTER V-79, Strain/Indicator: V-79 (HPRT)/6-THIOGUANINE, Metabolic Activation: NONE): active; positive
- mutagenic call (Test System: E. COLI WP2, Strain/Indicator: WP2, Metabolic Activation: NONE, Method: STANDARD PLATE): active; positive

Structure (SMILES): CC(=O)Nc1ccc(Oc2ccc(NO)cc2)cc1
- mutagenic call (Test System: AMES SALMONELLA TYPHIMURIUM, Strain/Indicator: TA98(1,8-DNP6), Metabolic Activation: NONE, Method: PREINCUBATION): active; positive
- mutagenic call (Test System: AMES SALMONELLA TYPHIMURIUM, Strain/Indicator: TA98(1,8-DNP6), Metabolic Activation: RAT, LIVER, S-9, AROCLOR 1254, Method: PREINCUBATION): active; positive
- mutagenic call (Test System: AMES SALMONELLA TYPHIMURIUM, Strain/Indicator: TA98(NR), Metabolic Activation: NONE, Method: PREINCUBATION): active; positive
- mutagenic call (Test System: AMES SALMONELLA TYPHIMURIUM, Strain/Indicator: TA98(NR), Metabolic Activation: RAT, LIVER, S-9, AROCLOR 1254, Method: PREINCUBATION): active; positive
- mutagenic call [1]: active; positive
- mutagenic call (Test System: AMES SALMONELLA TYPHIMURIUM, Strain/Indicator: TA98, Metabolic Activation: RAT, LIVER, S-9, AROCLOR 1254, Method: PREINCUBATION): active; positive
- mutagenic call (Test System: AMES SALMONELLA TYPHIMURIUM, Strain/Indicator: TA100(NR), Metabolic Activation: NONE, Method: PREINCUBATION): active; positive
- mutagenic call [2]: active; positive

Structure (SMILES): c1ccc2scnc2c1
- mutagenic call (Test System: MOUSE LYMPHOMA, Strain/Indicator: L5178Y (TK+/TK-), Metabolic Activation: NONE, Method: SUSPENSION/PLATE): inactive; negative. reevaluation of results: negative
- mutagenic call (Test System: MOUSE LYMPHOMA, Strain/Indicator: L5178Y (TK+/TK-), Metabolic Activation: RAT, LIVER, S-9, AROCLOR 1254, Method: SUSPENSION/PLATE): inactive; negative. reevaluation of results: negative

Structure (SMILES): COC(=O)c1c2c(c3ccccc3c1O)OC(C)(C)C=C2
- mutagenic call [2]: active; positive
- mutagenic call (Test System: AMES SALMONELLA TYPHIMURIUM, Strain/Indicator: TA100, Metabolic Activation: RAT, LIVER, S-9, PCB, Method: PREINCUBATION): active; positive

Structure (SMILES): CN1CCc2cc3c(c4c2[C@H]1Cc1ccccc1-4)OCO3
- mutagenic call (Test System: AMES SALMONELLA TYPHIMURIUM, Strain/Indicator: TA98, Metabolic Activation: RAT, LIVER, S-9, PHENOBARBITAL AND BETA-NAPHTHOFLAVONE, Method: PREINCUBATION): active; positive
- mutagenic call (Test System: AMES SALMONELLA TYPHIMURIUM, Strain/Indicator: TA100, Metabolic Activation: RAT, LIVER, S-9, PHENOBARBITAL AND BETA-NAPHTHOFLAVONE, Method: PREINCUBATION): active; positive

Structure (SMILES): O=[N+]([O-])c1ccc2ccc3cc4c(c5ccc1c2c35)CCCC4O (stereo unspecified)
- mutagenic call [3]: active; positive

Structure (SMILES): O=C(O)C[C@H](NC(=O)COc1cc(Cl)c(Cl)cc1Cl)C(=O)O
- mutagenic call (Test System: AMES SALMONELLA TYPHIMURIUM, Strain/Indicator: TA97, Metabolic Activation: NONE, Method: STANDARD PLATE): inactive; negative
- mutagenic call (Test System: AMES SALMONELLA TYPHIMURIUM, Strain/Indicator: TA97, Metabolic Activation: RAT, LIVER, S-9, AROCLOR 1254, Method: STANDARD PLATE): inactive; negative
- mutagenic call [3]: inactive; negative
- mutagenic call (Test System: AMES SALMONELLA TYPHIMURIUM, Strain/Indicator: TA98, Metabolic Activation: RAT, LIVER, S-9, AROCLOR 1254, Method: STANDARD PLATE): inactive; negative
- mutagenic call (Test System: AMES SALMONELLA TYPHIMURIUM, Strain/Indicator: TA100, Metabolic Activation: NONE, Method: STANDARD PLATE): inactive; negative
- mutagenic call (Test System: AMES SALMONELLA TYPHIMURIUM, Strain/Indicator: TA100, Metabolic Activation: RAT, LIVER, S-9, AROCLOR 1254, Method: STANDARD PLATE): inactive; negative
- mutagenic call (Test System: AMES SALMONELLA TYPHIMURIUM, Strain/Indicator: TA1535, Metabolic Activation: NONE, Method: STANDARD PLATE): inactive; negative
- mutagenic call (Test System: AMES SALMONELLA TYPHIMURIUM, Strain/Indicator: TA1535, Metabolic Activation: RAT, LIVER, S-9, AROCLOR 1254, Method: STANDARD PLATE): inactive; negative
- mutagenic call (Test System: AMES SALMONELLA TYPHIMURIUM, Strain/Indicator: TA1538, Metabolic Activation: NONE, Method: STANDARD PLATE): inactive; negative
- mutagenic call (Test System: AMES SALMONELLA TYPHIMURIUM, Strain/Indicator: TA1538, Metabolic Activation: RAT, LIVER, S-9, AROCLOR 1254, Method: STANDARD PLATE): inactive; negative
